Laboratory results from patent US20220339257A1, “METHODS TO INCREASE THE SENSITIVITY AND REVERSING THE RESISTANCE TO DRUGS” (Biomarker Strategies, LLC, priority 2019, published 2022).

How the values were obtained:
Experiment in all cases: Western blot of protein biomarkers
Format in all cases: cell-based
[1] = test system: BICR-16 cells; settings: IFN-γ (100 ng/mL)+TNF-α (10 ng/mL), 24 hours
Description: (§1) MTA and EM effects on protein biomarker expression were measured by western blotting. For the assay cell lines (Ca9-22, PE/CA-PJ15, HTB-38, HPAF-II, CAL27, BICR-16, A-253, Calu-6, PC-9, H1838, RPMI-7951 and A7) were cultured and treated with doses of MTAs alone, EMs alone and in combination and then lysed for protein analysis. This method can readily be conducted under adherent or suspension conditions, manually or on automated instruments, such as SnapPath. A total of 0.3×10^6 cells per well were seeded in 6 well plates with 10% FBS-containing media and incubated for 24 hours. Cells were then treated with MTA and/or EM concentrations for 24 hours. For total protein extraction, briefly, each sample media was collected, and wells were washed with HMS, and the wash was combined with its respective media collection. Cells were then detached using Accutase solution and again collected in its respective sample media and another HMS well wash and collection was performed. All cell solutions were centrifuged, washed with ice-cold PBS, and centrifuged again. Cell pellets were lysed in 250 μL of ice-cold 1× lysis buffer with protease and phosphatase inhibitor cocktails and incubated for 10 minutes on ice. Lysates were clarified with a centrifugation (14,000 rpm) for 10 minutes at 4° C. Cell lysates were quantified using Bio-Rad DC Protein Assay (Bio-Rad Cat. #5000116).
(§2) For all western blots, an equal amount of protein (3-5 μg) was loaded into SDS-polyacrylamide gels (Mini-Protean TGX Precast Gel; Bio-Rad, e.g. 7.5%, Cat. #4561024; 10%, Cat. #4561035; 12%, Cat. #4561045; or 4-15%, Cat. #4561085). Proteins were separated at 215V for at least 30 minutes in 1× Tris/Glycine/SDS buffer (Bio-Rad Cat. #1610772) and transferred to PVDF membranes using a Trans-Blot Turbo (Bio-Rad Cat. #1704155) for 7 minutes in transfer buffer (Trans-Blot Turbo Transfer Kit, Bio-Rad Cat. #1704273). Blots were blocked at room temperature for 1 hour with 5% non-fat dry milk in tris-buffered saline with Tween 20 (TBST; 15 mM Tris-HCl, pH 7.5, 200mMNaCl and 0.1% Tween 20). Membranes were incubated with primary antibodies at 4° C. overnight and at room temperature for 1 hour the next day; all primary antibodies were diluted following manufacturer's specifications in TBST with either 5% BSA or 5% non-fat dry milk. Membranes were washed in TBST for 5 minutes, three times, and incubated with HRP-conjugated secondary antibodies diluted 1:5000 in TBST with 5% non-fat dry milk at room temperature for 1 hour (anti-rabbit IgG, Bio-Rad Cat. #1706515; or anti-mouse IgG, Bio-Rad Cat. #1706516). Membranes were then washed in TBST for 10 minutes, three times, and target proteins were identified using Clarity Western ECL Substrate (Bio-Rad Cat. #1705061) on autoradiography film (GenHunter Cat. #B581, Nashville, Tenn., USA). Other assay types, such as Luminex multiplexed immunoassays, ICC, IHC, flow cytometry, etc. can be used readily.

[2] = test system: HTB-38 cells
Description: as §1, §2

[3] = test system: PC-9 cells; settings: trametinib (100 nM)+TNF-α (10 ng/mL), 24 hours
Description: as §1, §2

[4] = test system: Ca9-22 cells; settings: compared to either alone
Description: as §1, §2

[5] = test system: PE/CA-PJ15 cells; settings: osimertinib (100 nM)+IFN-α (200 ng/mL)
Description: as §1, §2

[6] = compared to either therapy alone
[7] = osimertinib (1000 nM)+IFN-α (200 ng/mL)

Row | Molecule | PARP cleavage ([1]; compared to MTA and EM alone) | LC3II over LC3I expression ([1]; compared to either alone) | Ki67 degradation and/or fragmentation pattern [1, 6] | LC3II expression ([2]; IFN-γ (100 ng/mL)+TNF-α) | p62 expression ([2]; IFN-γ (100 ng/mL)+TNF-α) | PARP cleavage ([2]; IFN-γ (100 ng/mL)+TNF-α (10 ng/mL), 24 hours, compared to MTA and EM alone) | Ki67 degradation and/or fragmentation pattern ([2]; IFN-γ (100 ng/mL)+TNF-α (10 ng/mL), 24 hours, compared to either therapy alone) | PARP cleavage ([3]; compared to MTA and EM alone) | p-AKT (Ser473) expression ([3]; compared to either MTA or EM alone) | Ki67 degradation and/or fragmentation pattern [3, 6] | LC3II over LC3I expression ([4]; GSK-458 (10 nM)+IFN-α (200 ng/mL), 24 hours) | LC3II expression [4, 7] | p62 expression [4, 7] | p62 expression [5] | LC3II over LC3I expression ([5]; 24 hours, compared to either alone)
1 | tumor necrosis factor-alpha [EM2] | very strong PARP cleavage | marked increase in LC3II over LC3I expression | marked increase in the distinct degradation and/or fragmentation pattern of Ki67 | increased expression | increased expression | very strong PARP cleavage | marked increase in the distinct degradation and/or fragmentation pattern of Ki67 | very strong PARP cleavage | strong reduction in p-AKT (Ser473) expression | marked increase in the distinct degradation and/or fragmentation pattern of Ki67 | – | – | – | – | –
2 | interferon-alpha-1 (protein, UniProt P01562 24-189, looked up, enhancer molecule, cytokine purchased from Sigma) Interferon alpha-1/13: CDLPETHSLDNRRTLMLLAQMSRISPSSCLMDRHDFGFPQEEFDGNQFQKAPAISVLHELIQQIFNLFTTKDSSAAWDEDLLDKFCTELYQQLNDLEACVMQEERVGETPLMNADSILAVKKYFRRITLYLTEKKYSPCAWEVVRAEIMRSLSLSTNLQERLRRKE | – | – | – | – | – | – | – | – | – | – | marked increase in LC3II over LC3I expression | LC3II upregulation | reduction in p62 | increased expression | marked increase in LC3II over LC3I expression
